The source of these data is patent US7897401B2, “Control of apoptosis by controlling the propensity of ceramide channel formation” (University of Maryland, College Park, priority 2005, dated 2011).

Common to all, as to type: biochemical
The test system of test [1] is ceramide channels in the mitochondrial outer membrane (MOM). Briefly: Adenylate kinase release assay in isolated rat liver mitochondria. How it is done: The preparation yielded a mitochondrial suspension containing 10 mg of protein per mL. […] The mitochondria were then pelleted at 14,000 g for 5 min at 4° C. and the supernatant was kept on ice until assayed. […] The enzymes were added to the rest of the reaction mixture 1 min before the addition of the mitochondrial supernatant to allow a trace of ATP to be consumed. The activity of adenylate kinase was detected as an increase in absorbance at 340 nm. Since the activity of the kinase decays with time, even on ice, experiments were performed in sets and the activity of the first supernatant was assayed again at the end of the set. The values were fitted to a first order decay and all values within the set were corrected for the decay of the activity, based on the time delay before assay.
To determine the effect of sphingosine pretreatment on ceramide permeabilization of the mitochondrial outer membrane, mitochondria were incubated at room temperature in the presence of varying concentrations of sphingosine for […] before addition of ceramide and incubation for 10 min. Untreated mitochondria and mitochondria hypotonically lysed (20 μl into 1.2 ml water) served as negative and positive controls, respectively.
Experiments with C16-ceramide were performed in a similar way except as follows. The mitochondria were suspended in the above medium except that the 1 mM Tris buffer was replaced by 5 mM HEPES. To 1.0 mL of this medium at room temperature (RT) was added 17 μL of mitochondrial suspension that had been kept on ice at a concentration of 4 mg/mL. The final mitochondrial protein concentration during the experiment was 80 μg/mL. In the case of shocked mitochondria, the 1.0 mL of medium was replaced by water. Sphingosine was added, where appropriate, from a 0.25 mg/mL solution in DMSO. Typically 4-7 incubations were run in parallel. All samples were incubated for 5 min at RT. Then some samples received 0.4 mL of fatty acid depleted bovine serum albumin (BSA), 25 mg/mL, followed immediately by 20 μL of C16-ceramide dissolved in isopropanol at 2 mg/mL. After a 10-min incubation at RT, 10 μL of 4 mM PMSF was added followed by centrifugation. In these experiments 0.3 mL of mitochondrial supernatant was added to the adenylate kinase reaction mixture.

Test [2] is described as follows: Protein (cytochrome c) release and metabolism of sphingosine in isolated mitochondria. The conditions noted are these: compound alone, maximum.
The nature of test [3]: Ability of sphingolipids to form channels in membranes. An excerpt:
The present invention establishes that sphingosine is capable of directly disassembling ceramide channels, thus proving the existence of this novel anti-apoptotic regulatory step. The ability of sphingosine, sphingosine-1-phosphate ([…]) and ceramide-1-phosphate the ability to form channels was investigated.

The test system of test [4] is ceramide channel in planar phospholipid membrane. Description: Electrophysiological recordings on planar phospholipid membranes. An excerpt:
Planar phospholipid membranes were produced by the monolayer method (Montal, M. et al. (1972) “FORMATION OF BIMOLECULAR MEMBRANES FROM LIPID MONOLAYERs AND A STUDY OF THEIR ELECTRICAL PROPERTIES,” Proc. Natl. Acad. Sci. USA 69:3561-3566) as modified by Colombini, M. (1987) (“CHARACTERIZATION OF CHANNELS ISOLATED FROM PLANT MITOCHONDRIA,” Methods Enzymol. 148:465-475), across a 100-μm-diameter hole in a Saran partition. Monolayers were produced using a solution of 0.5% w/v asolectin, 0.5% w/v DiPhyPC, 0.1% w/v cholesterol in hexane. This technique produces solvent-free phospholipid membranes whose lipid composition (focusing on the polar head-groups) is similar to that found in the mitochondrial outer membrane. It differs from the natural membrane in lacking proteins.
The aqueous solutions contained 1 mM MgCl2, and 5 mM Pipes pH 6.8 with KCl varying from 0.10 M to 1.0 M. The KCl concentration on one side of the membrane, referred to as the “trans” side, was always 0.10 M, whereas the other side (the “cis” side) was adjusted as needed. The transmembrane voltage was electronically clamped and the current through the membrane was recorded. The voltage values indicated are the voltage differences across the membrane cis side minus trans side.
C2-ceramide was stirred into the aqueous solution on each side of the membrane from a solution in DMSO, generally 0.5 mg/ml. Single or multiple additions, typically […] each, yielding a final concentration of 2 μg/ml, were made to achieve a desired level of conductance. Sphingosine additions of 5 μl were made from a solution in DMSO (4 mg/mL) yielding a final concentration of 4 μg/mL.
The observation that anti-apoptotic Bcl-2 family proteins inhibit ceramide channel formation in isolated yeast and rat liver mitochondria correlates with previous reports showing inhibition of ceramide-induced apoptosis in whole cells by these proteins. Thus the results directly tie ceramide-induced mitochondrial-mediated apoptosis with the Bcl-2 family of proteins known to regulate these events. To address whether the antiapoptotic proteins act directly on ceramide channels or work by an indirect action, their affects on ceramide channels in solvent-free planar phospholipid membranes was tested. This is a defined system free of other proteins. When C16-ceramide is added to the aqueous solution bathing one side of a planar phospholipid membrane, it results in discontinuous increases in conductance under voltage-clamp conditions, the defining characteristic of channel formation in membranes. These conductance increments are the enlargement of one ceramide channel rather than the formation of multiple ceramide channels in parallel (Siskind, L. J. et al. (2003) “ENLARGEMENT AND CONTRACTURE OF C2-CERAMIDE CHANNELS,” Biophys. J. 85:1560-1575). […]

Setting [5] is: observed in isolated mitochondria and liposome permeability assay.

For `CCCCCCCCCCCCC/C=C/[C@@H](O)[C@@H](N)CO` [sphingosine], the “permeabilization of the MOM to adenylate kinase after removal of excess compound with BSA” value in test [1] (2.4 μg/mL for 5 min, then fatty acid depleted BSA, no ceramide added) is “release of adenylate kinase is evident”. Also, in test [1] (5 min preincubation, C16-ceramide 40 μg/mL, 10 min, low concentration potentiates, higher inhibits), the “effect of preincubation on C16-ceramide permeabilization of the MOM and adenylate kinase release” value is given as “biphasic relationship”. The “sphingosine exposure giving essentially total inhibition of ceramide-dependent adenylate kinase release” value in test [1] (5 min pretreatment, then C2-ceramide 29 μg/mL for 10 min at room temperature, depends on batch of mitochondria) was 0.3 to 0.6 µg/mL. The “release of adenylate kinase by compound alone” value in test [1] (no ceramide, concentration range up to 6 μg/mL) is recorded as “did not induce the release of adenylate kinase”. Also, in test [1] (setting [5]), the “higher levels that strongly inhibited ceramide channel formation” value was 5 to 10 µM and the “low levels that stimulated ceramide induced permeabilization of the mitochondrial outer membrane to proteins” value lay within 1 to 2 µM. Further, the “release of cytochrome c from isolated mitochondria” value in test [2] was ≤ 15%. Further, the “ability to form channels” value in test [3] was “produced real channels”. Moreover, the “time at which conductance reached a minimum” value in test [4] (C2-ceramide 3 μg/mL, sphingosine 8 μg/mL at t=0, KCl gradient) was 20 min. In addition, the “time over which membrane conductance decreased after addition” value in test [4] (C2-ceramide channel (9 μg/mL), sphingosine 4 μg/mL cis side, 10 mV) lay in the range of 15 to 20 min. Besides, the “effect on formed ceramide channel” value in test [4] (C2-ceramide channel, sphingosine 4 μg/mL, conductance reached level of unmodified membrane) was “completely disassembled”.
